Active and inactive are the calls of the source. The calls are words filed in the database; no cut-off is given here. A value given as a limit tells only on which side of the number the result lay.

In general, EC50 refers to the concentration that produces a half-maximal response. As usually defined, the ED50 is the dose that gives a 50% effect, or the effect in half of the subjects.

Series [1] concerns the target T1, Mu-type opioid receptor (Homo sapiens, UniProt P35372). Kind of series: Agonist activity at human mu opioid receptor expressed in CHOK1 cells coexpressing Galpha15 assessed as increase in intracellular calcium flux in presence of mu opioid receptor antagonist naloxone and incubated for 1 hr measured for 90 secs at 1.5 sec interval by FLIPR assay. The format is functional, cell-based. A general note: A change in cytosolic calcium serves as a functional read-out for many receptors and channels.

Series [2] concerns the target T1, Mu-type opioid receptor. Kind of series: Agonist activity at human mu opioid receptor expressed in CHOK1 cells coexpressing Galpha15 assessed as intracellular calcium AUC in presence of mu opioid receptor antagonist naloxone and incubated for 1 hr measured for 90 secs at 1.5 sec interval by FLIPR assay to morphine. The class given is functional, cell-based. Also on record: concentration or dose not given beside the values.

Series [3] has as its system Mus musculus. The experiment in a line: Antinociceptive activity in C57BL/6 mouse model of thermal-induced nociception assessed as inhibition of tail-flick response by measuring AUC of tail flick test at 25 mg/kg, iv measured up to 30 to 180 mins in presence of 10 mg/kg, sc opioid receptor antagonist naloxone by tail flick test. The format is functional, organism-based.

In series [4] the test system is Mus musculus. The experiment in a line: Antinociceptive activity in C57BL/6 mouse model of thermal-induced nociception assessed as naloxone ED50 for inhibition of tail-flick response by measuring AUC of tail flick test at 100 mg/kg, iv measured up to 30 to 180 mins in presence of 10 mg/kg, sc opioid receptor antagonist naloxone by tail flick test. The format is functional. Background: Hot-plate and tail-flick tests time the reaction to a heat stimulus.

Series [5] concerns Mus musculus. Kind of series: Antinociceptive activity in C57BL/6 mouse model of thermal-induced nociception assessed as inhibition of tail-flick response by measuring AUC of tail flick test at 50 mg/kg, iv measured up to 30 to 180 mins in presence of 10 mg/kg, sc opioid receptor antagonist naloxone by tail flick test. The format is functional, organism-based.
Series [6] deals with Mus musculus. The experiment in a line: Antinociceptive activity in C57BL/6 mouse model of thermal-induced nociception assessed as inhibition of tail-flick response by measuring AUC of tail flick test at 100 mg/kg, iv measured up to 30 to 180 mins in presence of 10 mg/kg, sc opioid receptor antagonist naloxone by tail flick test. The format is functional, organism-based.
The nature of series [7]: Toxicity in iv dosed C57BL/6 mouse assessed as safe dose causing no animal death measured up to 30 to 180 mins during tail-flick test. The format is organism-based. The note with it: in vivo.
Series [8] has as its system Mus musculus. Kind of series: Antinociceptive activity in C57BL/6 mouse model of thermal-induced nociception at 100 mg/kg measured at 30 mins post injection by tail flick test. The class given is functional, organism-based.
Series [9] is described as follows: Toxicity in C57BL/6 mouse at 100 mg/kg, iv measured up to 30 to 180 mins during tail-flick test. The class given is organism-based. The settings on record: in vivo.
Series [10] has as its system Mus musculus. The experiment in a line: Antinociceptive activity in C57BL/6 mouse model of thermal-induced nociception assessed as inhibition of tail-flick response at 100 mg/kg, iv measured up to 30 to 180 mins in presence of opioid receptor antagonist naloxone at 100 ng/kg, sc by tail flick test. The format is functional, organism-based.
The test system of series [11] is Mus musculus. Kind of series: Antinociceptive activity in C57BL/6 mouse model of thermal-induced nociception assessed as inhibition of tail-flick response by measuring AUC of tail flick test at 25 to 100 mg/kg, iv measured up to 30 to 180 mins in presence of 10 mg/kg, sc opioid receptor antagonist naloxone by tail flick test. The format is functional, organism-based.

In series [12] the test system is Mus musculus. The experiment in a line: Antinociceptive activity in C57BL/6 mouse model of thermal-induced nociception assessed as inhibition of tail-flick response at 100 mg/kg, iv measured at 30 mins in presence of opioid receptor antagonist naloxone at 100 ng/kg, sc by tail flick test. The class given is functional, organism-based.
The subject of series [13] is Mus musculus. The experiment in a line: Antinociceptive activity in C57BL/6 mouse model of thermal-induced nociception at 100 mg/kg, sc measured up to 30 to 180 mins by tail flick test. The class given is functional, organism-based.

T1 sequence (P35372 whole entry): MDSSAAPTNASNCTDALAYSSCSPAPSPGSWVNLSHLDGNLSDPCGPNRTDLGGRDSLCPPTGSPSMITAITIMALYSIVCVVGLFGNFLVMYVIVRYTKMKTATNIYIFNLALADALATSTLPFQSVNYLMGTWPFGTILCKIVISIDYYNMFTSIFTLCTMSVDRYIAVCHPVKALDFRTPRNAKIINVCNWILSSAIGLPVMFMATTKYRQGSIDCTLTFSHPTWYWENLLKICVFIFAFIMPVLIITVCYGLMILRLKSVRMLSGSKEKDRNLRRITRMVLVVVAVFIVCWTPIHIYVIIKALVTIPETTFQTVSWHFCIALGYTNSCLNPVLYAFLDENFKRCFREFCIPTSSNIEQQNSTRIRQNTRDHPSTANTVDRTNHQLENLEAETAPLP

With `Cc1cc(C)c(Nc2nc(-c3oc(C)nc3C)cs2)c(C)c1`, the concentration giving a half-maximal response (EC50) in series [1] amounted to 3.9 µM. In series [2], the Activity was determined as 43.2%.
On to `CCc1ccccc1Nc1nc(-c2sc(C)nc2C)cs1`, for which the AUC in series [3] was determined as 115 min.sec; in series [5], 160 min.sec; in [6] it was 384 min.sec. In addition, the ED50 in series [4] was 17.5 mg/kg. The Activity in series [7] is 100 mg/kg; in [9], “Non-Toxic”; in series [11], “Dose-dependent effect”. Further, the outcome in series [8] and in series [12] was inactive. Also, the result in series [10] was Active.
With `Cc1ccc(Nc2nc(-c3sc(C)nc3C)cs2)c(C)c1`, the concentration giving a half-maximal response (EC50) in [1] is 8.8 µM. In addition, the Activity in series [2] worked out at 57.2%.
Turning to `COc1ccc(Nc2nc(-c3sc(C)nc3C)cs2)c(C)c1`, the EC50 in series [1] is 14 µM. Moreover, in series [2], the Activity is 32.6%.
For `CCc1ccccc1Nc1nc(C)cs1` the same measures were greater than 30 µM and “inactive”.
With `CCc1ccccc1Nc1nc(-c2oc(C)nc2C)cs1`, the half-maximal effective concentration (EC50) in series [1] came out at 3.3 µM. For the same compound, the Activity in series [2] worked out at 76.2%.
The like results for `COc1ccc(Nc2nc(-c3sc(C)nc3C)cs2)c(OC)c1` were, in that order, 19 µM and 45.2%.
The like results for `Cc1cc(C)c(Nc2nc(-c3sc(C)nc3C)cs2)c(C)c1` were, in that order, 6.1 µM and 52%.
The like results for `Cc1nc(C)c(-c2csc(Nc3c(C(C)C)cccc3C(C)C)n2)s1` were, in that order, greater than 30 µM and “inactive”.
As to `CCc1ccccc1Nc1nc(-c2sc(NC(C)=O)nc2C)cs1`, the EC50 in series [1] is greater than 30 µM. Moreover, the result in series [2] was inactive.
On to `CCc1ccccc1Nc1nc(-c2sc(-c3ccccc3)nc2C)cs1`, for which the EC50 in [1] was greater than 30 µM. Besides, the result in series [2] was inactive.
Turning to `Cc1nc(C)c(-c2csc(N)n2)s1`, the 50% effective concentration (EC50) in series [1] is greater than 30 µM. Besides, in series [2], the result was inactive.
In the case of `CCc1cccc(C)c1Nc1nc(-c2sc(C)nc2C)cs1`, the EC50 in series [1] is 2.8 µM. Besides, the Activity in [2] came out at 38.2%.
Consider `CCc1ccccc1Nc1nc(-c2nccs2)cs1`, for which the EC50 in series [1] is greater than 30 µM. For the same compound, the result in series [2] was inactive.
The like results for `CCc1ccccc1Nc1nc(-c2sc(N)nc2C)cs1` were, in that order, greater than 30 µM and “inactive”.
The like results for `CCc1ccccc1Nc1ncc(-c2sc(C)nc2C)o1` were, in that order, 13.3 µM and 34.4%.
For `Cc1nc(C)c(-c2csc(Nc3c(C)cccc3F)n2)s1` the same measures were 4.2 µM and 32%.
Consider `C=CCN1CC[C@]23c4c5ccc(O)c4O[C@H]2C(=O)CC[C@@]3(O)[C@H]1C5`, for which the outcome in series [13] was inactive.
As for `CCc1ccccc1Nc1nc(-c2sc(C)nc2C)c(C)s1`, the EC50 in series [1] was greater than 30 µM. Besides, the outcome in [2] was inactive.
Regarding `Cc1nc(C)c(-c2csc(Nc3ccc(Br)cc3C(F)(F)F)n2)s1`, the EC50 in series [1] was determined as 13.8 µM. Moreover, in series [2], the Activity worked out at 32.9%.
Take `CCc1cc(Br)ccc1Nc1nc(-c2sc(C)nc2C)cs1`: the EC50 in series [1] turned out to be 4.9 µM. Besides, the Activity in series [2] came to 5.9%.
For `Cc1nc(C)c(-c2csc(Nc3ccccc3CC(F)(F)F)n2)s1` the same measures were 8.5 µM and 72.1%.
Take `COc1cccc(Nc2nc(-c3sc(C)nc3C)cs2)c1C`: the EC50 in series [1] was 3.3 µM. Moreover, in [2], the Activity was 27.2%.
As for `CCc1nc(C)c(-c2csc(Nc3ccccc3CC)n2)s1`, the EC50 in series [1] came to 8.6 µM. Besides, the Activity in series [2] is 32.5%.
The like results for `Cc1nc(C)c(-c2csc(Nc3cccc(F)c3C)n2)s1` were, in that order, 10.1 µM and 57.9%.
For `Cc1nc(C)c(-c2csc(Nc3ccc(Br)cc3C)n2)s1` the same measures were greater than 30 µM and “inactive”.

These data come from ChEMBL document CHEMBL4390642, “The in vivo antinociceptive and μ-opioid receptor activating effects of the combination of N-phenyl-2',4'-dimethyl-4,5'-bi-1,3-thiazol-2-amines and naloxone” (Eur J Med Chem, 2019).
